According to ChEMBL document CHEMBL1201862, “PubChem BioAssay data set” (2004):
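Exposure lasted 48 hours, with cells grown in 96-well plates and compounds tested at five concentrations. GI50 marks 50% less growth.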 The source made the active and inactive calls. No stated cut-off is given here; in the data, active = GI50 up to about 1.1 µM and inactive = higher. Where a SMILES comes first, the peptide text is derived from it. The star is where a group is joined. Boc = CC(C)(C)OC(=O)*

Experiments:
Assay in all cases: DTP human tumour cell line panel, 48 h
OVCAR-5 = tested on: OVCAR-5
HT-29 = tested on: HT-29
M14 = tested on: M14
KM12 = tested on: KM12
U-251 = tested on: U-251
LOX IMVI = tested on: LOX IMVI
Malme-3M = tested on: Malme-3M
PC-3 = tested on: PC-3
ACHN = tested on: ACHN
786-0 = tested on: 786-0
UACC-62 = tested on: UACC-62
HCC 2998 = tested on: HCC 2998
SN12C = tested on: SN12C
HCT-116 = tested on: HCT-116
NCI/ADR-RES = tested on: NCI/ADR-RES
RXF 393 = tested on: RXF 393
MCF7 = tested on: MCF7
SNB-19 = tested on: SNB-19
SNB-75 = tested on: SNB-75
OVCAR-4 = tested on: OVCAR-4

Row | Structure (SMILES) | GI50 (OVCAR-5) | GI50 (HT-29) | GI50 (M14) | GI50 (KM12) | GI50 (U-251) | GI50 (LOX IMVI) | GI50 (Malme-3M) | GI50 (PC-3) | GI50 (ACHN) | GI50 (786-0) | GI50 (UACC-62) | GI50 (HCC 2998) | GI50 (SN12C) | GI50 (HCT-116) | GI50 (NCI/ADR-RES) | GI50 (RXF 393) | GI50 (MCF7) | GI50 (SNB-19) | GI50 (SNB-75) | GI50 (OVCAR-4)
1 | Cc1sc2nc(-c3ccc([N+](=O)[O-])cc3)c(/C=N/N=C(N)N)n2c1C | 1.36 µM (inactive) | 0.432 µM (active) | 0.67 µM (active) | 0.301 µM (active) | 0.179 µM (active) | 0.398 µM (active) | 1.17 µM (inactive) | 1.28 µM (inactive) | 1.33 µM (inactive) | 0.221 µM (active) | 1.73 µM (inactive) | 0.175 µM (active) | 1.33 µM (inactive) | 0.173 µM (active) | 2.76 µM (inactive) | 0.942 µM (active) | 0.555 µM (active) | 0.721 µM (active) | – | –
2 | c1ccc(/C(=N/Nc2ccccn2)c2ncccn2)cc1 | 2.77 µM (inactive) | < 0.01 µM (active) | 0.386 µM (active) | 3.18 µM (inactive) | 2.07 µM (inactive) | – | 0.538 µM (active) | 9.16 µM (inactive) | 0.112 µM (active) | 0.8 µM (active) | 2.82 µM (inactive) | > 30 µM (inactive) | 0.488 µM (active) | 0.524 µM (active) | 1.43 µM (inactive) | 11.3 µM (inactive) | 0.175 µM (active) | 4.26 µM (inactive) | 1.87 µM (inactive) | 1.28 µM (inactive)
3 | COC(=O)/C=C1\C(=O)C=C2[C@@H]3C[C@H]4C[C@H](CC[C@@]4(C)N21)C3(C)NC(C)=O (stereo partly specified) | 18.1 µM (inactive) | 8.02 µM (inactive) | 8.91 µM (inactive) | 16 µM (inactive) | 17 µM (inactive) | 17 µM (inactive) | – | 15.1 µM (inactive) | 16 µM (inactive) | 3.51 µM (inactive) | 17.6 µM (inactive) | 26.9 µM (inactive) | 11.7 µM (inactive) | 8.97 µM (inactive) | 26.5 µM (inactive) | 4.51 µM (inactive) | 7.18 µM (inactive) | 25.9 µM (inactive) | 13.2 µM (inactive) | 17.6 µM (inactive)
4 | COC(=O)c1cn(CCCC(=O)O)nn1 | – | > 100 µM (inactive) | – | > 100 µM (inactive) | > 100 µM (inactive) | > 100 µM (inactive) | > 100 µM (inactive) | > 100 µM (inactive) | > 100 µM (inactive) | > 100 µM (inactive) | > 100 µM (inactive) | > 100 µM (inactive) | > 100 µM (inactive) | > 100 µM (inactive) | > 100 µM (inactive) | > 100 µM (inactive) | > 100 µM (inactive) | > 100 µM (inactive) | > 100 µM (inactive) | > 100 µM (inactive)
5 | CSC(SC)=C(C(=O)c1ccc(Cl)cc1)n1c(=O)sc2cc(Br)ccc21 | > 100 µM (inactive) | 98.6 µM (inactive) | > 100 µM (inactive) | > 100 µM (inactive) | > 100 µM (inactive) | > 100 µM (inactive) | > 100 µM (inactive) | > 100 µM (inactive) | > 100 µM (inactive) | > 100 µM (inactive) | > 100 µM (inactive) | > 100 µM (inactive) | > 100 µM (inactive) | 51.3 µM (inactive) | > 100 µM (inactive) | > 100 µM (inactive) | > 100 µM (inactive) | > 100 µM (inactive) | – | 50.8 µM (inactive)
6 | CCOC(=O)c1cn(C)c(=S)n2c1nc1ccccc12 | > 100 µM (inactive) | – | > 100 µM (inactive) | 98.9 µM (inactive) | > 100 µM (inactive) | 56 µM (inactive) | – | 48.1 µM (inactive) | 49.1 µM (inactive) | 74.1 µM (inactive) | 21.8 µM (inactive) | > 100 µM (inactive) | > 100 µM (inactive) | 54.3 µM (inactive) | 37.8 µM (inactive) | > 100 µM (inactive) | 44.6 µM (inactive) | 83.8 µM (inactive) | > 100 µM (inactive) | 34.8 µM (inactive)
7 | S=C1SC(=N\c2ccccc2)/C(=N/c2ccccc2)N1c1ccc2ccccc2c1 | > 100 µM (inactive) | – | > 100 µM (inactive) | > 100 µM (inactive) | > 100 µM (inactive) | – | > 100 µM (inactive) | > 100 µM (inactive) | – | – | > 100 µM (inactive) | > 100 µM (inactive) | > 100 µM (inactive) | 12.1 µM (inactive) | > 100 µM (inactive) | 7.26 µM (inactive) | > 100 µM (inactive) | > 100 µM (inactive) | 74.8 µM (inactive) | 80.7 µM (inactive)
8 | CCN1C(NN)=NS(=O)(=O)c2ccccc21 | > 100 µM (inactive) | > 100 µM (inactive) | > 100 µM (inactive) | > 100 µM (inactive) | > 100 µM (inactive) | > 100 µM (inactive) | – | > 100 µM (inactive) | > 100 µM (inactive) | > 100 µM (inactive) | > 100 µM (inactive) | > 100 µM (inactive) | > 100 µM (inactive) | > 100 µM (inactive) | > 100 µM (inactive) | > 100 µM (inactive) | > 100 µM (inactive) | > 100 µM (inactive) | – | > 100 µM (inactive)
9 | C=CCN(CCN(CC=C)S(=O)(=O)c1ccc(C)cc1)S(=O)(=O)c1ccc(C)cc1 | – | > 100 µM (inactive) | > 100 µM (inactive) | > 100 µM (inactive) | > 100 µM (inactive) | 55.1 µM (inactive) | – | > 100 µM (inactive) | > 100 µM (inactive) | – | – | > 100 µM (inactive) | > 100 µM (inactive) | > 100 µM (inactive) | > 100 µM (inactive) | > 100 µM (inactive) | > 100 µM (inactive) | > 100 µM (inactive) | > 100 µM (inactive) | > 100 µM (inactive)
10 | CCOC(=O)c1[nH]cc(C)c1-c1ccn(-c2ccccc2)c1 | > 100 µM (inactive) | 29.6 µM (inactive) | 48.2 µM (inactive) | 19.6 µM (inactive) | 49.4 µM (inactive) | 41.8 µM (inactive) | – | 30.6 µM (inactive) | 50.2 µM (inactive) | 53.2 µM (inactive) | 36.8 µM (inactive) | 41.9 µM (inactive) | 89.7 µM (inactive) | 42.7 µM (inactive) | 36.2 µM (inactive) | 36.8 µM (inactive) | 61 µM (inactive) | – | 13.3 µM (inactive) | 41.9 µM (inactive)
11 | CCCCOCCOCCOC1=CC(=O)c2c(O)ccc(O)c2C1=O | – | – | 1.51 µM (inactive) | 1.83 µM (inactive) | 1.85 µM (inactive) | 1.86 µM (inactive) | 0.4 µM (active) | 3 µM (inactive) | 1.66 µM (inactive) | 1.6 µM (inactive) | 1.82 µM (inactive) | 1.82 µM (inactive) | 1.82 µM (inactive) | 1.76 µM (inactive) | 2.14 µM (inactive) | 1.94 µM (inactive) | 1.75 µM (inactive) | 1.79 µM (inactive) | – | 1.94 µM (inactive)
12 | O=[N+]([O-])c1ccc(/C=N\N=c2/ccc([N+](=O)[O-])c[nH]2)cc1 | > 100 µM (inactive) | > 100 µM (inactive) | > 100 µM (inactive) | > 100 µM (inactive) | 69 µM (inactive) | – | > 100 µM (inactive) | > 100 µM (inactive) | > 100 µM (inactive) | > 100 µM (inactive) | > 100 µM (inactive) | > 100 µM (inactive) | > 100 µM (inactive) | > 100 µM (inactive) | > 100 µM (inactive) | > 100 µM (inactive) | > 100 µM (inactive) | > 100 µM (inactive) | 90.6 µM (inactive) | > 100 µM (inactive)
13 | CC1=C(C(=O)OC2CC3CCC2(C)C3(C)C)C2Nc3ccccc3N(C)C2O1 (stereo unspecified) | 7.1 µM (inactive) | 1.56 µM (inactive) | 1.63 µM (inactive) | 2.43 µM (inactive) | 3.58 µM (inactive) | 1.71 µM (inactive) | – | 2.52 µM (inactive) | 2.74 µM (inactive) | 2.51 µM (inactive) | 1.98 µM (inactive) | 1.66 µM (inactive) | 1.78 µM (inactive) | 2.79 µM (inactive) | 2.99 µM (inactive) | 2.63 µM (inactive) | 2.36 µM (inactive) | 3.48 µM (inactive) | 3.43 µM (inactive) | 1.67 µM (inactive)
14 | O=C(Nc1ccccc1)c1cc(S(=O)(=O)n2ccnc2O)c(S)cc1Cl | > 100 µM (inactive) | > 100 µM (inactive) | > 100 µM (inactive) | > 100 µM (inactive) | > 100 µM (inactive) | > 100 µM (inactive) | – | > 100 µM (inactive) | > 100 µM (inactive) | > 100 µM (inactive) | > 100 µM (inactive) | > 100 µM (inactive) | > 100 µM (inactive) | > 100 µM (inactive) | > 100 µM (inactive) | > 100 µM (inactive) | > 100 µM (inactive) | > 100 µM (inactive) | 28.8 µM (inactive) | –
15 | CCOC(=O)C(CC(C)C)NC(=O)C(Cc1ccccc1)NC(=O)CNC(=O)OC(C)(C)C (stereo not drawn) (Boc-Gly-Phe-Leu-OEt; configuration not given here) | – | 18.1 µM (inactive) | 20 µM (inactive) | 18.5 µM (inactive) | 17.7 µM (inactive) | 18.2 µM (inactive) | 19.9 µM (inactive) | 20 µM (inactive) | 17.1 µM (inactive) | 20.9 µM (inactive) | 18.4 µM (inactive) | 19.7 µM (inactive) | 19.2 µM (inactive) | 17.9 µM (inactive) | 80.2 µM (inactive) | 25.8 µM (inactive) | 2.44 µM (inactive) | 31.6 µM (inactive) | 16.3 µM (inactive) | 36.9 µM (inactive)
